This passage reports IC50 results from patent US6043248A, “Alpha-substituted pyrimidine-thioalkyl and alkylether compounds as inhibitors of viral reverse transcriptase” (priority 1997, dated 2000).

Molecules are shown by their SMILES.

As usually defined, the IC50 is the concentration at which inhibition is half-maximal.

For one assay, the target named is T1, P236L viral reverse transcriptase (Human immunodeficiency virus type 1 group M subtype B, UniProt P04585, P823L).
T1 construct: P236L viral reverse transcriptase is obtained by PNAS 90: 4713-4717 (1993); made in house
The experiment in a line: inhibition of viral reverse transcriptase (P236L), cell free assay. The format is biochemical. The note with it: 30 minutes at 37° C., read-out: IC50 (Table I, P236L). An excerpt: The utility of the pyrimidine-thioalkyl and alkylether anti-AIDS compounds of Formula IA of this invention can be determined by their ability to inhibit viral reverse transcriptase, an enzyme essential for human immunodeficiency virus replication. This enzyme has characteristics which differentiate it from other known cellular polymerases and it is a unique enzyme which is not found in uninfected cells. Viral reverse transcriptase (Wild Type) is found in extracts from bacterial clones prepared according to the procedure described in AIDS Virus Reverse Transcriptase defined by high level expression in Escherichia coli, EMBO J. 6:3133-3137 (1987). P236L viral reverse transcriptase is obtained by PNAS 90: 4713-4717 (1993). Inhibition of this enzyme is determined in a cell free assay which measures the level of radioactive precursors incorporated into DNA. Extracts prepared according to the procedure of Science, 1125-1129 (1981) are incubated in a mixture of inhibitor, 20 mM dithiothreitol, 60 mM sodium chloride, 0.05% NP-40, 10 mM magnesium chloride, 50 mM Tris pH 8.3, 10 μM [^35 S]-labeled deoxynuleoside-5'-triphosphate, 10 μg/ml RNA template (poly rC or poly rG) and 5 μg/ml DNA primer (oligo dG or oligo dT) for 30 minutes at 37° C. Incorporation of radio-labeled percursor is determined by spotting aliquots of the reaction mixture on DE81 paper, washing the papers to remove unincorporated percursor, drying and determining counts. The results (IC50 means the concentration, in μM of drug, required to inhibit the reverse transcriptase activity (P236L and Wild Type) to the extent of 50%) of various assay(s) are combined and reported as % inhibition and/or IC50 (calculated) in Table I (P236L) and Table II (Wild Type).
In the case of `Nc1cc(Cl)nc(SCc2cnc3ccccc3n2)n1` [Example 179, 4-Amino-6-chloro-2-[(quinoxalin-2-ylmethyl)thio]pyrimidine], the IC50 came to 500 nM.
As for `COc1cccc(CSc2nc(N)cc(Cl)n2)c1` [Example 39, 4-amino-6-chloro-2-(3-methoxyphenylmethylthio)-pyrimidine], the IC50 is 160 nM.
The same measure, in the same setting: under `CC(C)(O)c1ccnc(CSc2nc(N)cc(Cl)n2)c1` [Example 135] stands 100 nM.
Turning to `Cc1cc(CSc2nc(N)cc(Cl)n2)ncn1` [Example 130, 4-amino-6-chloro-2-[4-(6-methyl)pyrimidinylmethylthio]-pyrimidine], the IC50 amounted to 800 nM.
Same read-out and setting: under `CCC(C)c1ccnc(CSc2nc(N)cc(Cl)n2)c1` (centres unmarked) [Example 145, 4-amino-6-chloro-2-[2-(4-(2-butyl))pyridylmethylthio]-pyrimidine] stands 10 nM; under `Nc1cc(Cl)nc(SC/C=C/c2ccccc2)n1` [Example 64, 4-amino-6-chloro-2-(E-styrylmethylthio)-pyrimidine], 66 nM; under `Nc1cc(Cl)nc(SCc2cccnc2)n1` [Example 57, 4-amino-6-chloro-2-(3-pyridylmethylthio)-pyrimidine], 10000 nM.
Same read-out and setting: in the case of `Nc1cc(Cl)nc(SCc2cccc(Br)c2)n1` [Example 43, 4-amino-6-chloro-2-(3-bromophenylmethylthio)-pyrimidine] it was 140 nM.
Still for that read-out and setting: under `Cc1cc(C)nc(CSc2nc(N)cc(Cl)n2)c1` [Example 121, 4-amino-6-chloro-2-[2-(4,6-dimethyl)pyridylmethylthio]-pyrimidine] stands 10 nM; under `Nc1cc(Cl)nc(SCc2cccc3ccccc23)n1` [Example 58, 4-amino-6-chloro-2-(1-naphthylmethylthio)-pyrimidine], 30 nM; under `COc1cc(C)nc(CSc2nc(N)cc(Cl)n2)c1` [Example 120, 4-amino-6-chloro-2-[2-(4-methoxy-6-methyl)-pyridylmethylthio]-pyrimidine], 20 nM.
As to `Nc1cc(Cl)nc(SCc2ccc(Cl)cc2Cl)n1` [Example 51, 4-amino-6-chloro-2-(2,4-dichlorophenylmethylthio)-pyrimidine], the IC50 is 1000 nM.
The same measure, in the same setting: under `Nc1cc(Cl)nc(SCc2ccc3c(c2)CCO3)n1` [Example 168, 4-Amino-6-chloro-2-[(2,3-dihydrobenzofuran-5-ylmethyl)thio]pyrimidine] stands 50 nM.
Still for that read-out and setting: in the case of `Nc1cc(Cl)nc(SCc2cccc(C(F)(F)F)c2)n1` [Example 38, 4-amino-6-chloro-2-(3-trifluoromethylphenylmethylthio)-pyrimidine] it was 1000 nM.
On the same count and under the same terms, in the case of `Nc1cc(Cl)nc(SCc2ccc3c(c2)OCO3)n1` [Example 186, 4-Amino-6-chloro-2-[(piperon-5-ylmethyl)thio]pyrimidine] it was 500 nM; in that of `Nc1cc(Cl)nc(SCc2cc(CO)ccn2)n1` [Example 164, 4-amino-6-chloro-2-[2-(4-hydroxymethyl)-pyridylmethylthio]-pyrimidine], 1000 nM.
In the case of `C=C(C)[C@@H]1CC=C(CSc2nc(N)cc(Cl)n2)CC1` [Example 157, 4-Amino-6-chloro-2-[((S)-(--)perillyl)thio]pyrimidine], the IC50 worked out at 10000 nM.
Still for that read-out and setting: in the case of `Nc1nc(SCc2cc(Cl)ccn2)nc(Cl)c1F` [Example 149, 4-amino-6-chloro-5-fluoro-2-[2-(4-chloro)pyridylmethylthio]pyrimidine] it was 50 nM; in that of `CCc1ccnc(CSc2nc(N)cc(Cl)n2)c1` [Example 122, 4-amino-6-chloro-2-[2-(4-ethyl)pyridylmethylthio]-pyrimidine], 10 nM; in that of `CCc1ccc(CSc2nc(N)cc(Cl)n2)nc1` [Example 134, 4-amino-6-chloro-2-[2-(4-ethyl)pyridylmethylthio]-pyrimidine], 50 nM.
`Nc1cc(Cl)nc(SCc2cc3ccccc3o2)n1` [Example 153, 4-Amino-6-chloro-2-[(benzofuran-2-ylmethyl)thio]pyrimidine]: the IC50 is 10000 nM.
For `Nc1cc(Cl)nc(SCc2ccccn2)n1` [Example 55, 4-amino-6-chloro-2-(2-pyridylmethylthio)-pyrimidine], the IC50 is 2 nM.
On the same count and under the same terms, in the case of `Nc1cc(Cl)nc(SCc2cc(C3CC3)ccn2)n1` [Example 137, 4-amino-6-chloro-2-[2-(4-cyclopropyl)pyridylmethylthio]-pyrimidine] it was 10 nM.
Same read-out and setting: under `Nc1cc(Cl)nc(SCc2cccc(Cl)n2)n1` [Example 112, 4-amino-6-chloro-2-[2-(6-chloro)pyridylmethylthio]-pyrimidine] stands 70 nM.
On the same count and under the same terms, in the case of `Nc1cc(Cl)nc(SCc2c(F)cccc2F)n1` [Example 34, 4-amino-6-chloro-2-(2,6-difluorophenylmethylthio)-pyrimidine] it was 10000 nM; in that of `Cc1cc(CSc2nc(N)cc(Cl)n2)nc(N(C)C)c1` [Example 154, 4-amino-6-chloro-2-[2-(6-dimethylamino-4-methyl)pyridylmethylthio]-pyrimidine], 50 nM.
As for `Nc1cc(Cl)nc(SCC2=Cc3ccccc3CC2)n1` [Example 171, 4-Amino-6-chloro-2-[[(3,4-dihydro-1-naphthalen-2-yl)methyl]thio]-pyrimidine], the IC50 was determined as 1000 nM.
The same measure, in the same setting: under `Nc1cc(Cl)nc(SCC2=CCc3ccccc32)n1` [Example 155, 4-amino-6-chloro-2-[(1H-inden-3-ylmethyl)thio]pyrimidine] stands 5000 nM; under `Clc1cc(N2CCCC2)nc(SCc2ccccc2)n1` [Example 85, 4-pyrrolidino-6-chloro-2-(benzylthio)-pyrimidine], 30000 nM; under `Cc1ccc(CSc2nc(N)cc(Cl)n2)cc1` [Example 37, 4-amino-6-chloro-2-(4-methylphenylmethylthio)-pyrimidine], 330 nM.
The same measure, in the same setting: under `Nc1cc(Cl)nc(SCc2ccc3ccccc3c2)n1` [Example 59, 4-amino-6-chloro-2-(2-naphthylmethylthio)-pyrimidine] stands 36 nM; under `Nc1nc(SCc2ccccc2)nc(Cl)c1C1CCCCC1` [Example 53, 4-amino-6-chloro-5-cyclohexyl-2-(benzylthio)-pyrimidine], 15000 nM; under `Nc1nc(SCc2cc(Cl)ccn2)nc(Cl)c1F` [Example 192], 20 nM.
Same read-out and setting: in the case of `Nc1cc(Cl)nc(SCc2cccc[n+]2[O-])n1` [Example 147, 2-[2-(4-amino-6-chloro)pyrimidinylthiomethyl]-pyridine-1-oxide] it was 5000 nM.
`Nc1cc(Cl)nc(SCc2ccc3ccccc3n2)n1` [Example 61, 4-amino-6-chloro-2-(2-quinolinylmethylthio)-pyrimidine]: the IC50 worked out at 5000 nM.
Consider `Nc1cc(Cl)nc(SCc2ccc(F)c(F)c2)n1` [Example 48, 4-amino-6-chloro-2-(3,4-difluorophenylmethylthio)-pyrimidine], for which the IC50 is 500 nM.
The same measure, in the same setting: under `Nc1nc(SCc2ccc3ccccc3c2)nc(Cl)c1F` [Example 91, 4-amino-5-fluoro-6-chloro-2-(2-naphthylmethylthio)-pyrimidine] stands 2500 nM.

The same assay, now with this note: IC50 (Table I, P236L), 30 minutes at 37° C.
For the compound `Nc1cc(Cl)nc(SCc2cccc3cccnc23)n1` [Example 180, 4-Amino-6-chloro-2-[(quinolin-8-ylmethyl)thio]pyrimidine], the IC50 turned out to be 50 nM.
